Measured values as given in patent US10738028B2, “Spiro three-membered ring, spiro five-membered ring peptide deformylase inhibitor and use thereof in antibacteria and anti-tumor” (priority 2016, dated 2020).

Experiments:
Assay type in all cases: cell-based
[1] = test system: Enterococcus faecalis (EFA); test: MIC, two-fold agar dilution (CLSI), clinical isolates
How it was run: (§1)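 Test samples were assayed by the CLSI-recommended two-fold agar dilution method, and the minimum inhibitory concentration against each tested strain was determined.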

[2] = test system: Enterococcus faecium (EFM); test: as above
How it was run: as §1

[3] = test system: Escherichia coli (including ESBLs, non-ESBLs); test: as above
How it was run: as §1

[4] = test system: Moraxella catarrhalis (BCA); test: as above
How it was run: as §1

[5] = test system: Streptococcus pneoumoniae (SPN); test: as above
How it was run: as §1

[6] = test system: methicillin-resistant Staphylococcus aureus (MRSA); test: as above
How it was run: as §1

[7] = test system: methicillin-resistant Staphylococcus epidermidis (MRSE); test: as above
How it was run: as §1

[8] = test system: methicillin-sensitive Staphylococcus aureus (MSSA); test: as above
How it was run: as §1

[9] = test system: methicillin-sensitive Staphylococcus epidermidis (MSSE); test: as above
How it was run: as §1

[10] = test system: HCT-116 colorectal cancer cell line; test: CCK-8 proliferation inhibition; conditions: concentration of 30 μM; 72 hours; CCK-8; 30 µM
How it was run: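 2000 cells/well, McCoy's 5A + 10% newborn bovine serum; overnight attach, 37° C./5% CO2. Cpd from DMSO stock diluted in medium, 72 h. Readout: CCK-8 (1:10). Ctrl 1‰ DMSO.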

[11] = test system: A549 lung cancer cell line; test: CCK-8 proliferation inhibition; conditions: Homo sapiens, A549, 72 h, concentration of 30 μM
Excerpt: (§2) 2. The present invention adopts the CCK-8 method to determine the proliferation inhibition effect of the spiro three-membered ring, spiro five-membered ring peptide deformylase inhibitor as described in Examples 1-80 against colorectal cancer cells, lung cancer cells, gastric cancer cells, liver cancer cells, and the like. […] The compound having the best activity synthesized in Example 64 was further tested for its inhibitory activity against other tumor cells including T cell leukemia, acute myeloid leukemia, cervical cancer, breast cancer, prostate cancer and osteosarcoma, and the like (see Table 7).
(§3) (1) HCT-116 colorectal cancer cell line, A549 lung cancer cell line, MGC-803 gastric cancer cell line, BEL-7402 liver cancer cell line, Jurkat T cell leukemia cell line, HL60 acute myeloid leukemia cell line, Hela cervical cancer cell line, MCF-7 breast cancer cell line, PC3 prostate cancer cell line and SAOS-2 osteosarcoma cell line were made into single cell suspension, 180 μL of which was inoculated into 96-well culture plate, which was cultured overnight in CO2 incubator (37° C., 5% CO2, 95% air).
(§4) (2) Each of the spiro three-membered ring, spiro five membered ring peptide deformylase inhibitors was dissolved in DMSO, and was further formulated into drug solution with required different final concentration using corresponding cell culture medium. The drug solutions were added to the above cells respectively (20 μL/well), with the control group added with 1‰ DMSO, and cultured in a CO2 incubator for 72 hours.
(§5) (3) After incubation for 72 hours, the culture solution was decanted, and 100 μL of 1:10 diluted CCK-8 solution was added.
(§6) Wherein, in step (1), the concentration of the single cell suspension was 2000 cells/well.
(§7) Wherein, in step (2), HCT-116 cells were cultured in McCoy's 5A medium (containing 10% newborn bovine serum, 1% double antibody); A549 and PC3 cells were cultured in F12 medium (containing 10% newborn bovine serum, 1% double antibody); MGC-803, BEL-7402, SAOS-2, Jurkat and HL60 cells were cultured in 1640 medium (containing 10% newborn bovine serum, 1% double antibody); and MCF-7 and Hela cells were cultured in DMEM high glucose medium (containing 10% newborn bovine serum, 1% double antibody).

[12] = test system: BEL-7402 liver cancer cell line; test: CCK-8 proliferation inhibition; conditions: concentration of 30 μM, 72 hours, 30 µM
Excerpt: as §2, §3, §4, §5, §6, §7

[13] = test system: MGC-803 gastric cancer cell line; test: CCK-8 proliferation inhibition; conditions: concentration of 30 μM
Excerpt: as §2, §3, §4, §5, §6, §7

## O=CN(O)C[C@@H](CC1CCCC1)C(=O)N1CC2(CC2)C[C@H]1C(=O)Nc1nccs1 (stereo in doubt) [Example 40, (S)-5-((S)-3-cyclopentyl-2-((N-hydroxyformamido)methyl)propionyl)-N-(thiazol-2-yl)-5-spiro[2.4]heptane-6-carboxamide]
[1]; clinical isolate EFA 15-1
  Anti-bacterial activity (MIC), strain EFA 15-1: 4 µg/mL
[1]; clinical isolate EFA 15-2
  Anti-bacterial activity (MIC), strain EFA 15-2: 4 µg/mL
[1]; clinical isolate EFA 15-3
  Anti-bacterial activity (MIC), strain EFA 15-3: 4 µg/mL
[1]; clinical isolate EFA 15-4
  Anti-bacterial activity (MIC), strain EFA 15-4: 4 µg/mL
[1]; clinical isolate EFA 15-5
  Anti-bacterial activity (MIC), strain EFA 15-5: 4 µg/mL
[1]; clinical isolate EFA 15-6
  Anti-bacterial activity (MIC), strain EFA 15-6: 4 µg/mL
[1]; clinical isolate EFA 15-9
  Anti-bacterial activity (MIC), strain EFA 15-9: 4 µg/mL
[2]; clinical isolate EFM 15-1
  Anti-bacterial activity (MIC), strain EFM 15-1: 1 µg/mL
[2]; clinical isolate EFM 15-2
  Anti-bacterial activity (MIC), strain EFM 15-2: 1 µg/mL
[2]; clinical isolate EFM 15-3
  Anti-bacterial activity (MIC), strain EFM 15-3: 0.25 µg/mL
[2]; clinical isolate EFM 15-4
  Anti-bacterial activity (MIC), strain EFM 15-4: 1 µg/mL
[2]; clinical isolate EFM 15-5
  Anti-bacterial activity (MIC), strain EFM 15-5: 1 µg/mL
[2]; clinical isolate EFM 15-6
  Anti-bacterial activity (MIC), strain EFM 15-6: 1 µg/mL
[3]; clinical isolate ECO+ 15-1
  Anti-bacterial activity (MIC), strain ECO+ 15-1: 32 µg/mL
[3]; clinical isolate ECO+ 15-2
  Anti-bacterial activity (MIC), strain ECO+ 15-2: 32 µg/mL
[3]; clinical isolate ECO+ 15-3
  Anti-bacterial activity (MIC), strain ECO+ 15-3: 32 µg/mL
[3]; clinical isolate ECO+ 15-4
  Anti-bacterial activity (MIC), strain ECO+ 15-4: 32 µg/mL
[3]; clinical isolate ECO− 15-1
  Anti-bacterial activity (MIC), strain ECO− 15-1: 32 µg/mL
[3]; clinical isolate ECO− 15-2
  Anti-bacterial activity (MIC), strain ECO− 15-2: 32 µg/mL
[3]; clinical isolate ECO− 15-3
  Anti-bacterial activity (MIC), strain ECO− 15-3: 32 µg/mL
[3]; clinical isolate ECO− 15-4
  Anti-bacterial activity (MIC), strain ECO− 15-4: 32 µg/mL
[4]; clinical isolate BCA 14-1
  Anti-bacterial activity (MIC), strain BCA 14-1: 1 µg/mL
[4]; clinical isolate BCA 14-4
  Anti-bacterial activity (MIC), strain BCA 14-4: 1 µg/mL
[4]; clinical isolate BCA 14-5
  Anti-bacterial activity (MIC), strain BCA 14-5: 0.5 µg/mL
[4]; clinical isolate BCA 14-6
  Anti-bacterial activity (MIC), strain BCA 14-6: 0.5 µg/mL
[4]; clinical isolate BCA 14-7
  Anti-bacterial activity (MIC), strain BCA 14-7: 0.25 µg/mL
[4]; clinical isolate BCA 14-8
  Anti-bacterial activity (MIC), strain BCA 14-8: 0.5 µg/mL
[4]; clinical isolate BCA 14-10
  Anti-bacterial activity (MIC), strain BCA 14-10: 0.2 µg/mL
[5]; clinical isolate SPN 16-2
  Anti-bacterial activity (MIC), strain SPN 16-2: 0.25 µg/mL
[5]; clinical isolate SPN 16-4
  Anti-bacterial activity (MIC), strain SPN 16-4: 4 µg/mL
[6]; clinical isolate MRSA 15-1
  Anti-bacterial activity (MIC), strain MRSA 15-1: 0.5 µg/mL
[6]; clinical isolate MRSA 15-2
  Anti-bacterial activity (MIC), strain MRSA 15-2: 0.5 µg/mL
[6]; clinical isolate MRSA 15-3
  Anti-bacterial activity (MIC), strain MRSA 15-3: 0.25 µg/mL
[6]; clinical isolate MRSA 15-4
  Anti-bacterial activity (MIC), strain MRSA 15-4: 0.25 µg/mL
[7]; clinical isolate MRSE 15-1
  Anti-bacterial activity (MIC), strain MRSE 15-1: 0.5 µg/mL
[7]; clinical isolate MRSE 15-2
  Anti-bacterial activity (MIC), strain MRSE 15-2: 0.5 µg/mL
[7]; clinical isolate MRSE 15-3
  Anti-bacterial activity (MIC), strain MRSE 15-3: 0.5 µg/mL
[7]; clinical isolate MRSE 15-7
  Anti-bacterial activity (MIC), strain MRSE 15-7: 0.5 µg/mL
[8]; clinical isolate MSSA 15-3
  Anti-bacterial activity (MIC), strain MSSA 15-3: 0.5 µg/mL
[8]; clinical isolate MSSA 15-4
  Anti-bacterial activity (MIC), strain MSSA 15-4: 0.5 µg/mL
[8]; clinical isolate MSSA 15-5
  Anti-bacterial activity (MIC), strain MSSA 15-5: 0.5 µg/mL
[8]; clinical isolate MSSA 15-6
  Anti-bacterial activity (MIC), strain MSSA 15-6: 0.5 µg/mL
[9]; clinical isolate MSSE 15-3
  Anti-bacterial activity (MIC), strain MSSE 15-3: 0.5 µg/mL
[9]; clinical isolate MSSE 15-4
  Anti-bacterial activity (MIC), strain MSSE 15-4: 0.5 µg/mL
[9]; clinical isolate MSSE 15-5
  Anti-bacterial activity (MIC), strain MSSE 15-5: 0.25 µg/mL
[9]; clinical isolate MSSE 15-6
  Anti-bacterial activity (MIC), strain MSSE 15-6: 0.25 µg/mL
[10]
  HCT116 inhibition rate/%: 78%
[11]
  inhibition at 30 µM: 30%
[12]
  Inhibition of proliferation, Liver cancer BEL-7402: 73%
[13]; Homo sapiens, MGC-803, 72 h
  inhibition at 30 µM: > 50%
[13]; 72 hours, 30 µM
  Inhibition of proliferation, Gastric cancer MGC-803: 63%
